The assay concerns the target T1, small-conductance Ca2+-activated K+ channels (SK channels, subtype 2) (Homo sapiens, UniProt Q9H2S1).
T1 construct: expressed in transfected cells; host or cells: HEK293
The assay can be described thus: whole-cell patch-clamp of ionic current through SK2 channels in HEK293 cells (SC100). Particulars: HEK293 cells expressing SK2 channels, concentration that increases the basal current by 100%; for SC100 (μM): whole-cell patch-clamp. The assay is classed as cell-based. The method, then:
The biological activity was determined as follows. The ionic current through small-conductance Ca^2+-activated K^+ channels (SK channels, subtype 2) was measured using the whole-cell configuration of the patch-clamp technique in a patch-clamp set-up using HEK293 tissue culture cells expressing SK2 channels as described in Hougaard et al., British Journal of Pharmacology 151, 655-665, May 8, 2007, the entire teachings of which are incorporated herein by reference. In one aspect, a compound is defined to be an SK PAM if the compound increases current in this assay, for example, if the SC100 value of the compound is less than or equal to 10 μM as determined by this assay. The SC100 value is defined to be the concentration of compound that increases the basal current by 100%.

Each structure is given as a SMILES string. Structures can show the parent of a compound that is named as a salt.

As for `Cc1csc(-c2cc(N(C)C)cc(NC3CCC(F)(F)CC3)n2)n1`, the “SC100 (μM)” value was “++ (++ means 200 nM-1000 nM)”.
Still for that read-out and setting: the result for `FCc1ccn(-c2nc(NC3CC=CCC3)cc(N3CCOCC3)n2)n1` (stereo not shown) reads “+ (+ means >1 uM)”; that for `FCc1ccn(-c2nc(NC3CCC(F)CC3)cc(N3CCOCC3)n2)n1` (stereo not shown), “+ (+ means >1 uM)”.
Turning to `Cc1cc(C)n(-c2nc(NC3CCC(F)(F)CC3)cc(N3CCOC(CO)C3)n2)n1` (racemic) [Compound 110, (4-(6-((4,4-difluorocyclohexyl)amino)-2-(3,5-dimethyl-1H-pyrazol-1-yl)pyrimidin-4-yl)morpholin-2-yl)methanol], the SC100 entry was “++ (++ means 200 nM-1000 nM)”.
Still for that read-out and setting: the result for `Cc1cc(C)n(-c2cc(NC3CCN(C)C3=O)cc(NC3CCC(F)(F)CC3)n2)n1` (racemic) [Compound 135, 3-((2-((4,4-difluorocyclohexyl)amino)-6-(3,5-dimethyl-1H-pyrazol-1-yl)pyridin-4-yl)amino)-1-methylpyrrolidin-2-one] reads “+ (+ means >1 uM)”; that for `Cc1csc(-c2nc(NC3CCC(F)(F)CC3)cc(C(C)O)n2)n1` (racemic) [Compound 362, 1-(6-((4,4-difluorocyclohexyl)amino)-2-(4-methylthiazol-2-yl)pyrimidin-4-yl)ethan-1-ol], “++ (++ means 200 nM-1000 nM)”.
For the compound `Cc1cc(C)n(-c2nc(NC3CCC(F)(F)CC3)cc([C@H]3COCC[C@H]3O)n2)n1` (relative stereo) [Compound 257, (−)-3-(6-((4,4-difluorocyclohexyl)amino)-2-(3,5-dimethyl-1H-pyrazol-1-yl)pyrimidin-4-yl)tetrahydro-2H-pyran-4-ol], the SC100 result is on record as “+ (+ means >1 uM)”.
For the compound `Cc1cc(C)n(-c2nc(NC3CCC(F)(F)CC3)cc(N3CCO[C@@H](CO)C3)n2)n1` (single isomer, unassigned) [Compound 112, (+)-(4-(6-((4,4-difluorocyclohexyl)amino)-2-(3,5-dimethyl-1H-pyrazol-1-yl)pyrimidin-4-yl)morpholin-2-yl)methanol], the SC100 result is on record as “++ (++ means 200 nM-1000 nM)”.
Turning to `Cc1cc(C)n(-c2nc(NC3CCC(F)(F)CC3)cc(N3CCO[C@H](CO)C3)n2)n1` (single isomer, unassigned) [Compound 113, (−)-(4-(6-((4,4-difluorocyclohexyl)amino)-2-(3,5-dimethyl-1H-pyrazol-1-yl)pyrimidin-4-yl)morpholin-2-yl)methanol], the SC100 entry was “++ (++ means 200 nM-1000 nM)”.
On the same count and under the same terms, the result for `Cc1cc(C)n(-c2nc(NC3CCC(F)(F)CC3)cc(N[C@H]3CCN(C)C3=O)n2)n1` (single isomer, unassigned) [Compound 128, (+)-3-((6-((4,4-difluorocyclohexyl)amino)-2-(3,5-dimethyl-1H-pyrazol-1-yl)pyrimidin-4-yl)amino)-1-methylpyrrolidin-2-one] reads “+ (+ means >1 uM)”; that for `Cc1cc(C)n(-c2cc(N[C@H]3CCN(C)C3=O)cc(NC3CCC(F)(F)CC3)n2)n1` (single isomer, unassigned) [Compound 138, (+)-3-((2-((4,4-difluorocyclohexyl)amino)-6-(3,5-dimethyl-1H-pyrazol-1-yl)pyridin-4-yl)amino)-1-methylpyrrolidin-2-one], “+ (+ means >1 uM)”.
Still for that read-out and setting: the result for `Cc1cc(C)n(-c2cc(N[C@@H]3CCN(C)C3=O)cc(NC3CCC(F)(F)CC3)n2)n1` (single isomer, unassigned) [Compound 139, (−)-3-((2-((4,4-difluorocyclohexyl)amino)-6-(3,5-dimethyl-1H-pyrazol-1-yl)pyridin-4-yl)amino)-1-methylpyrrolidin-2-one] reads “+ (+ means >1 uM)”; that for `Cc1cc(C)n(-c2nc(NC3CCC(F)(F)CC3)cc([C@@H](C)O)n2)n1` (single isomer, unassigned) [Compound 198, (−)1-(6-((4,4-difluorocyclohexyl)amino)-2-(3,5-dimethyl-1H-pyrazol-1-yl)pyrimidin-4-yl)ethan-1-ol], “+ (+ means >1 uM)”.
With `Cc1cc(C)n(-c2nc(N[C@H]3CCCC(F)(F)C3)cc([C@@H](C)O)n2)n1` (single isomer, unassigned) [Compound 354], the SC100 entry is given as “+ (+ means >1 uM)”.
The same measure, in the same setting: the result for `Cc1csc(-c2nc(NC3CCC(F)(F)CC3)cc([C@H](C)O)n2)n1` (single isomer, unassigned) [Compound 363] reads “++ (++ means 200 nM-1000 nM)”; that for `Cc1csc(-c2nc(NC3CCC(F)(F)CC3)cc([C@@H](C)O)n2)n1` (single isomer, unassigned) [Compound 364], “++ (++ means 200 nM-1000 nM)”.
As to `Cc1cc(C)n(-c2nc(NC3CCC(F)(F)CC3)cc(NC(C(N)=O)C(C)C)n2)n1` (stereo in doubt) [Compound 164, (R)-2-((6-((4,4-difluorocyclohexyl)amino)-2-(3,5-dimethyl-1H-pyrazol-1-yl)pyrimidin-4-yl)amino)-3-methylbutanamide], the SC100 entry was “+ (+ means >1 uM)”.
Same read-out and setting: with `Cc1cc(C)n(-c2nc(NC3CCC(F)(F)CC3)cc(N3CCNC(C(N)=O)C3)n2)n1` (stereo not shown) [Compound 100, 4-(6-((4,4-difluorocyclohexyl)amino)-2-(3,5-dimethyl-1H-pyrazol-1-yl)pyrimidin-4-yl)piperazine-2-carboxamide] the entry was “+ (+ means >1 uM)”; with `CC(=O)N1CCN(c2cc(-n3nc(C)cc3C)nc(NC3CCC(F)(F)CC3)n2)CC1` [Compound 101, 1-(4-(2-((4,4-difluorocyclohexyl)amino)-6-(3,5-dimethyl-1H-pyrazol-1-yl)pyrimidin-4-yl)piperazin-1-yl)ethan-1-one], “++ (++ means 200 nM-1000 nM)”; with `CC(=O)N1CCN(c2cc(NC3CCC(F)(F)CC3)nc(-n3nc(C)cc3C)n2)CC1` [Compound 102, 1-(4-(6-((4,4-difluorocyclohexyl)amino)-2-(3,5-dimethyl-1H-pyrazol-1-yl)pyrimidin-4-yl)piperazin-1-yl)ethan-1-one], “++ (++ means 200 nM-1000 nM)”.
`Cc1cc(C)n(-c2nc(NC3CCC(F)(F)CC3)cc(N3C[C@H]4CC3CN4)n2)n1` [Compound 103, 6-((4R)-2,5-diazabicyclo [2.2.1]heptan-2-yl)-N-(4,4-difluorocyclohexyl)-2-(3,5-dimethyl-1H-pyrazol-1-yl)pyrimidin-4-amine hydrochloride salt]: the SC100 entry is on record as “+ (+ means >1 uM)”.
Turning to `Cc1cc(C)n(-c2cc(N3C[C@H]4C[C@@H]3CN4)nc(NC3CCC(F)(F)CC3)n2)n1` [Compound 104, 4-((1R,4R)-2,5-diazabicyclo[2.2.1]heptan-2-yl)-N-(4,4-difluorocyclohexyl)-6-(3,5-dimethyl-1H-pyrazol-1-yl)pyrimidin-2-amine], the SC100 result is reported as “++ (++ means 200 nM-1000 nM)”.
With `Cc1cc(C)n(-c2nc(NC3CCC(F)(F)CC3)cc(N3CC4(COC4)C3)n2)n1` [Compound 105, N-(4,4-difluorocyclohexyl)-2-(3,5-dimethyl-1H pyrazol-1-yl)-6-(2-oxa-6-azaspiro[3.3]heptan-6-yl)pyrimidin-4-amine], the SC100 result is recorded as “+ (+ means >1 uM)”.
Still for that read-out and setting: with `Cc1cc(C)n(-c2cc(N3CCNC(C(N)=O)C3)nc(NC3CCC(F)(F)CC3)n2)n1` (stereo not shown) [Compound 106, 4-(2-((4,4-difluorocyclohexyl)amino)-6-(3,5-dimethyl-1H-pyrazol-1-yl)pyrimidin-4-yl)piperazine-2-carboxamide] the entry was “++ (++ means 200 nM-1000 nM)”; with `Cc1cc(C)n(-c2cc(NC(C)C(N)=O)nc(NC3CCC(F)(F)CC3)n2)n1` (stereo not shown) [Compound 107, 2-((2-((4,4-difluorocyclohexyl)amino)-6-(3,5-dimethyl-1H-pyrazol-1-yl)pyrimidin-4-yl)amino)propanamide], “+ (+ means >1 uM)”.
On the same count and under the same terms, the result for `Cc1cc(C)n(-c2cc(N3CC4(COC4)C3)nc(NC3CCC(F)(F)CC3)n2)n1` [Compound 108, N-(4,4-difluorocyclohexyl)-4-(3,5-dimethyl-1H-pyrazol-1-yl)-6-(2-oxa-6-azaspiro[3.3]heptan-6-yl)pyrimidin-2-amine] reads “+ (+ means >1 uM)”; that for `Cc1cc(C)n(-c2nc(NC3CCC(F)(F)CC3)cc(NC(C)C(N)=O)n2)n1` (stereo not shown) [Compound 109, 2-((6-((4,4-difluorocyclohexyl)amino)-2-(3,5-dimethyl-1H-pyrazol-1-yl)pyrimidin-4-yl)amino)propanamide], “+ (+ means >1 uM)”; that for `CCc1cnc(-n2nc(C)cc2C)nc1NC1CCC(F)(F)CC1` [Compound 111, N-(4,4-difluorocyclohexyl)-2-(3,5-dimethyl-1H-pyrazol-1-yl)-5-ethylpyrimidin-4-amine], “+ (+ means >1 uM)”.
Same read-out and setting: with `Cc1cc(C)n(-c2cc(N3CCOC(C(N)=O)C3)nc(NC3CCC(F)(F)CC3)n2)n1` (stereo not shown) [Compound 114, 4-(2-((4,4-difluorocyclohexyl)amino)-6-(3,5-dimethyl-1H-pyrazol-1-yl)pyrimidin-4-yl)morpholine-2-carboxamide] the entry was “+ (+ means >1 uM)”.
On to `Cc1cc(C)n(-c2nc(NC3CCC(F)(F)CC3)cc(N3CCOC(C(N)=O)C3)n2)n1` (stereo not shown) [Compound 115, 4-(6-((4,4-difluorocyclohexyl)amino)-2-(3,5-dimethyl-1H-pyrazol-1-yl)pyrimidin-4-yl)morpholine-2-carboxamide], for which the SC100 entry was “+ (+ means >1 uM)”.
For `Cc1cc(C)n(-c2nc3c(c(NC4CCC(F)(F)CC4)n2)CCN(Cc2ccccc2)C3)n1` [Compound 116], the SC100 result was “++ (++ means 200 nM-1000 nM)”.

These data come from patent US10774064B2 (Cadent Therapeutics, Inc., priority 2016, dated 2020).
